Results on two molecules are retold here after patent US11028095B2, “Spiro-lactam and bis-spiro-lactam NMDA receptor modulators and uses thereof” (Aptinyx Inc., priority 2016, dated 2021).

Data set [1] concerns positive (hedonic) 50-kHz ultrasonic vocalizations (USVs). The data set is described as follows: Positive Emotional Learning (PEL) test. The format is in vivo. The note with it: rat, PO, one hour after administration. The method, boiled down:
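Rats received test compound or vehicle (0.5% carboxymethyl cellulose in saline) 1 h before 3 min of experimenter-delivered rough-and-tumble play in alternating 15 s play and no-stimulation blocks. Frequency-modulated 50-kHz USVs during no-stimulation (CS) periods were counted; animals not habituated beforehand.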

Data set [2] can be described thus: Microsomal stability (Human). The format is in vitro ADME. Particulars: human microsomes. On the procedure: (§1) Microsomal stability of disclosed compounds was investigated. The following table indicates the percent of compound remaining after 60 minutes.
A short description of data set [3]: Microsomal stability (Rat). In kind it is in vitro ADME. The note with it: rat microsomes. On the procedure: as §1
Another data set is described as follows: Plasma stability (Human). The format is in vitro ADME. On the procedure:
(§2) Plasma stability of disclosed compounds was investigated. The following table indicates the percent of compound remaining after 60 minutes.

A short description of the next data set: Plasma stability (Rat). The format is in vitro ADME. On the procedure: as §2
Data set [4] has as its target T1, NMDAR2A expressing HEK cell membranes (Homo sapiens, UniProt Q05586+Q12879).
T1 construct: expressed in transfected cells; host or cells: HEK cells (membrane extract)
The data set is described as follows: NMDAR agonist assay, [3H]MK-801 binding, NMDAR2A. The format is biochemical. The note with it: 50 μM glutamate. On the procedure: (§3) (nonequilibrium conditions).
(§4) The baseline value was determined from the best fit curve of the DPM values modeled using the GraphPad program and the log(agonist) vs. response(three parameters) algorithm was then subtracted from all points in the dataset.

Data set [5] concerns the target T2, NMDAR2B expressing HEK cell membranes (Homo sapiens, UniProt Q05586+Q13224).
T2 construct: expressed in transfected cells; host or cells: HEK cells (membrane extract)
The data set is described as follows: NMDAR agonist assay, [3H]MK-801 binding, NMDAR2B. The format is biochemical. The note with it: 50 μM glutamate; for EC50: [3H]MK-801 binding, read-out: NMDAR2B log EC50 (converted). On the procedure: as §3, §4

The target in data set [6] is T3, NMDAR2C expressing HEK cell membranes (Homo sapiens, UniProt Q05586+Q14957).
T3 construct: expressed in transfected cells; host or cells: HEK cells (membrane extract)
T3 sequence (Q14957 20-1233, other chains not shown): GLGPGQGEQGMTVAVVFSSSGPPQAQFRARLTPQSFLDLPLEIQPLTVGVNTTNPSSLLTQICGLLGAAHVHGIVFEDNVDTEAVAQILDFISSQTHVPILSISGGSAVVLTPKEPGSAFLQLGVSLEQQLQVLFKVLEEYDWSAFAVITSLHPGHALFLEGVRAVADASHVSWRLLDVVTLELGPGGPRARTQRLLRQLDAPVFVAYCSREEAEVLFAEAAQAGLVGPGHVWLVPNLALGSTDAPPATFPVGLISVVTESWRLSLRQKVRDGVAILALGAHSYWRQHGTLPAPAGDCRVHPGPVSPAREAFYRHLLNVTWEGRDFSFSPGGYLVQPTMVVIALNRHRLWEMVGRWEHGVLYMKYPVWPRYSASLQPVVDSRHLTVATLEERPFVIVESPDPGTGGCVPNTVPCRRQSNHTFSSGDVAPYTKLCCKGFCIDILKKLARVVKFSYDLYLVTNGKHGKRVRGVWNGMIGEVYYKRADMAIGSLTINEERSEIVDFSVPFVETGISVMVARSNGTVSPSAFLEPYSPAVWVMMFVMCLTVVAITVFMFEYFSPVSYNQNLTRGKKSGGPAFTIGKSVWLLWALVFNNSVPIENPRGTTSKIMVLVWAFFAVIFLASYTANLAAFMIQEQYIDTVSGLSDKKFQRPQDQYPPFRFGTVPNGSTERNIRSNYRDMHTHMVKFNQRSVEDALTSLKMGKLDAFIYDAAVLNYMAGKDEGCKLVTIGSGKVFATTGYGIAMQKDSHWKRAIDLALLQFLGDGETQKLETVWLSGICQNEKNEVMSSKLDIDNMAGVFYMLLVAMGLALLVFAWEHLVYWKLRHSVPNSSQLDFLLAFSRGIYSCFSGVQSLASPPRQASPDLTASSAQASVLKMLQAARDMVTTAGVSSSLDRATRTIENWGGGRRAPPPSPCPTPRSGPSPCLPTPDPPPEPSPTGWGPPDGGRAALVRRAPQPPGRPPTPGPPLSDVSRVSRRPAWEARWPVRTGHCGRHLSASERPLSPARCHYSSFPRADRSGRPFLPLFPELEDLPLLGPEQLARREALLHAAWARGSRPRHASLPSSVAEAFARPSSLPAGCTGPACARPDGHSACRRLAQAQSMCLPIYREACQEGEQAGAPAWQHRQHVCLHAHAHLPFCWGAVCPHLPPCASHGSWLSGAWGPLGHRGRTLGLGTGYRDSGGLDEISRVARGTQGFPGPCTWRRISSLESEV
Description: NMDAR agonist assay, [3H]MK-801 binding, NMDAR2C. Particulars: 50 μM glutamate; [3H]MK-801 binding; read-out: NMDAR2C: log EC50 (converted). The format is biochemical. On the procedure: as §3, §4

Data set [7] has as its target T4, NMDAR2C expressing HEK cell membranes (Homo sapiens, UniProt Q14957).
T4 construct: expressed in transfected cells; host or cells: HEK cells (membrane extract)
Description: NMDAR agonist assay, [3H]MK-801 binding, NMDAR2C. The format is biochemical. Particulars: 50 μM glutamate; relative to 1 mM glycine. On the procedure: as §3, §4

In data set [8] the target is T5, NMDAR2D expressing HEK cell membranes (Homo sapiens, UniProt O15399).
T5 construct: expressed in transfected cells; host or cells: HEK cells (membrane extract)
T5 sequence (O15399 28-1336, other chains not shown): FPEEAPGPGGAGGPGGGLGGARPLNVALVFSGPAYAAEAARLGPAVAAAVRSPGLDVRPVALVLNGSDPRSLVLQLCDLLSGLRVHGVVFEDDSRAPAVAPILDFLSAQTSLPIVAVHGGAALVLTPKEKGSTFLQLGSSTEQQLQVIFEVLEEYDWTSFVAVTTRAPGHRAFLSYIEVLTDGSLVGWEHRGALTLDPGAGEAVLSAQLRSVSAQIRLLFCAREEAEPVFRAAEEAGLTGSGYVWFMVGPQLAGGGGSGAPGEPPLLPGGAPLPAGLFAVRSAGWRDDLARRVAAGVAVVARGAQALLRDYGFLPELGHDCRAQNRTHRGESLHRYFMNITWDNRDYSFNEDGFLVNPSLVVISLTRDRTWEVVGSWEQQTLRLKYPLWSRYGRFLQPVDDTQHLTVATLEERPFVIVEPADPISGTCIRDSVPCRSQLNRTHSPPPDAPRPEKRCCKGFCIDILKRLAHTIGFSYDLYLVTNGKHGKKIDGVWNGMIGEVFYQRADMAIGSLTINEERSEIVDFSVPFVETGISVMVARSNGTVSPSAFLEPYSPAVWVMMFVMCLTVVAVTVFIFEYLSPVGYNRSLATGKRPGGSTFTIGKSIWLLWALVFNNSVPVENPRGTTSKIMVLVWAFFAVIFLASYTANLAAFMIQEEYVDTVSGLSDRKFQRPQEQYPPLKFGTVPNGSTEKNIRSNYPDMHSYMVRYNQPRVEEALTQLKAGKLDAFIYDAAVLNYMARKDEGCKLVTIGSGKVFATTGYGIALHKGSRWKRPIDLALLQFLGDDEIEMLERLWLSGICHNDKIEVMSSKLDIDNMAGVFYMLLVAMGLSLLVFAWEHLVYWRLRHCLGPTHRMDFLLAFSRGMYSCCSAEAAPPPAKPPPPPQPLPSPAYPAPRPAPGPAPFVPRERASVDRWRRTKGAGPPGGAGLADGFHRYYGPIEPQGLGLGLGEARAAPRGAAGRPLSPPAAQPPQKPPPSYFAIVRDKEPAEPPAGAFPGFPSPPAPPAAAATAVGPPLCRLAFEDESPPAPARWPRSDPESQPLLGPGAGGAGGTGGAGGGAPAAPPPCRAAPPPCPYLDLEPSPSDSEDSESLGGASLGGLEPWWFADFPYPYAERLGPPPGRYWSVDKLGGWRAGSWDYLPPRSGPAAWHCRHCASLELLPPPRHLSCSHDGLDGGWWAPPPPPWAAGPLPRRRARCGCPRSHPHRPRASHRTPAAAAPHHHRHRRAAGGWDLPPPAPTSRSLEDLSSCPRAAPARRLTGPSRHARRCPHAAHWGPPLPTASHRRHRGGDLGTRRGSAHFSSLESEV
Description: NMDAR agonist assay, [3H]MK-801 binding, NMDAR2D. The format is biochemical. The note with it: 50 μM glutamate. On the procedure:
as §3, §4

The target in data set [9] is T6, NMDAR2D expressing HEK cell membranes (Homo sapiens, UniProt O15399+Q05586).
T6 construct: expressed in transfected cells; host or cells: HEK cells (membrane extract)
T6 sequence (O15399 28-1336, other chains not shown): as above
Description: NMDAR agonist assay, [3H]MK-801 binding, NMDAR2D. The format is biochemical. Particulars: 50 μM glutamate; [3H]MK-801 binding; read-out: NMDAR2D: log EC50 (converted). On the procedure: as §3, §4

For data set [10], the target named is T7, NMDAR2A expressing HEK cell membranes (Homo sapiens, UniProt Q12879).
T7 construct: expressed in transfected cells; host or cells: HEK cells (membrane extract)
Description: NMDAR agonist assay, [3H]MK-801 binding, NMDAR2A. The format is biochemical. The note with it: 50 μM glutamate. On the procedure:
as §3, §4

Data set [11] concerns the target T8, NMDAR2B expressing HEK cell membranes (Homo sapiens, UniProt Q13224).
T8 construct: expressed in transfected cells; host or cells: HEK cells (membrane extract)
Description: NMDAR agonist assay, [3H]MK-801 binding, NMDAR2B. The format is biochemical. Particulars: 50 μM glutamate; relative to 1 mM glycine. On the procedure: as §3, §4

A short description of the next data set: IV pharmacokinetics. The format is in vivo. On the set-up: C0: unit: ng/mL. The note with it: Sprague Dawley rats, 2 mg/kg, normal saline. On the procedure:
Sprague Dawley rats were dosed intravenously using a normal saline formulation containing 2 mg/kg of the compounds identified in the below table. The table below summarizes the results of the IV pharmacokinetics.

Data set [12] in a line: Oral pharmacokinetics (plasma, brain, CSF). Particulars: Sprague Dawley rats, per os, 10 mg/kg. Set-up: Cmax: unit: ng/mL. In kind it is in vivo. On the procedure:
In another experiment, Sprague Dawley rats were dosed per os using a normal saline formulation containing 10 mg/kg of the compounds identified in the table below. Plasma, brain, and CSF samples were analyzed at various time points over a 24 hour period. The table below summarizes the results of the oral pharmacokinetics.

[13] abbreviates: [3H]MK-801 binding, read-out: NMDAR2A: log EC50 (converted).

T2 sequence (Q13224 27-1484, other chains not shown): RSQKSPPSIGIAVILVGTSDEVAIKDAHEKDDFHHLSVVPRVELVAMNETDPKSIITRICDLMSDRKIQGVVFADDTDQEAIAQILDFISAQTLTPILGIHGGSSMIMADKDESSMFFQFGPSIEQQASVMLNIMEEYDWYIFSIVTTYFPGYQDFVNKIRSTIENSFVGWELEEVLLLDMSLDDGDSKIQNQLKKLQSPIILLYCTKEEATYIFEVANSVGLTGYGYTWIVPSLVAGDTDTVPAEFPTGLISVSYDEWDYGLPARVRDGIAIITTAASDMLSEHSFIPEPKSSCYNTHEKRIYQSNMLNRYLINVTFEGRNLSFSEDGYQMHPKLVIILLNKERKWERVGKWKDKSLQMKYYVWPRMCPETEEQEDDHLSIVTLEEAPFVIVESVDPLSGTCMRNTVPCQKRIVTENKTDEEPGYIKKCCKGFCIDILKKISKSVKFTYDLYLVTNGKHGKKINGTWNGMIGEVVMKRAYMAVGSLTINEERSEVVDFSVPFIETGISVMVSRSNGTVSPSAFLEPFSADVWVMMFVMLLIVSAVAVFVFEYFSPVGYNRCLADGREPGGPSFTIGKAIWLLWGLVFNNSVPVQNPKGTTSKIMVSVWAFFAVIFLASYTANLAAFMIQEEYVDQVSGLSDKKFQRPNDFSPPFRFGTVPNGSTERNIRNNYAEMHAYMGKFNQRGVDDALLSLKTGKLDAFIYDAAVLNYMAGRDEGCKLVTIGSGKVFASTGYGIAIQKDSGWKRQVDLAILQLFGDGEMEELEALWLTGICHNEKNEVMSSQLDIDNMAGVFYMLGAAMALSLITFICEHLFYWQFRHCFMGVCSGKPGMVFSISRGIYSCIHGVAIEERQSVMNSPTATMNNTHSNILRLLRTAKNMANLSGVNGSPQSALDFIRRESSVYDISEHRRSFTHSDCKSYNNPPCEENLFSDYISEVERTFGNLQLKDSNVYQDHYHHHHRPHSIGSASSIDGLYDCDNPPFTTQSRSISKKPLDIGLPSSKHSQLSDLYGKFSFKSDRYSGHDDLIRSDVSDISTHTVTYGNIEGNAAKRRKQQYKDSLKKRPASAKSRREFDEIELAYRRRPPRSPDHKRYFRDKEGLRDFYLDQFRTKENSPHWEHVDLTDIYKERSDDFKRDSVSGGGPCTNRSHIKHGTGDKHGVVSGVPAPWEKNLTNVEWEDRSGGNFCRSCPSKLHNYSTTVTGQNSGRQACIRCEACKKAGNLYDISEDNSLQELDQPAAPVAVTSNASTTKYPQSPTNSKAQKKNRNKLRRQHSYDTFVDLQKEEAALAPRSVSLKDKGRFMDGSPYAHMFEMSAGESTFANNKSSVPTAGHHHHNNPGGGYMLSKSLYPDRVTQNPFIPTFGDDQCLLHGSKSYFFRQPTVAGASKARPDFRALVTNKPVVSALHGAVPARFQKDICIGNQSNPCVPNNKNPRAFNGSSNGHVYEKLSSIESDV
T4 sequence (Q14957 20-1233, other chains not shown): as the sequence (Q14957 20-1233, other chains not shown) above

In the case of `O=C1NCC12CCC1(CNC1=O)N2Cc1ccccc1` (single isomer, unassigned) [AC-2, 5-benzyl-2,5,8-triazadispiro[3.1.36.24]undecane-1,7-dione], in [1] (dose 0.001-1 mg/kg), the “Max Effect (mean number of 50 kHz USVs per 15 seconds)” value is recorded as “* (*: 6-10.9)”. Further, the “Microsomal (Human): percent of compound remaining after 60 minutes” value in data set [2] was 98%. The “Microsomal (Rat): percent of compound remaining after 60 minutes” value in [3] is listed as 100%. Besides, the “Plasma (Human): percent of compound remaining after 60 minutes” value in “Plasma stability (Human)” amounted to 94%. The “Plasma (Rat): percent of compound remaining after 60 minutes” value in “Plasma stability (Rat)” is 94%. The EC50 in [4] (setting [13]), in [5], in [6] and in data set [9] was less than 1 nM in each case. Further, the Emax is less than 100% in data set [4] (relative to 1 mM glycine, read-out: NMDAR2A: % maximal [3H]MK-801 binding relative to 1 mM glycine) and less than 100% in data set [5] (relative to 1 mM glycine, read-out: NMDAR2B: % maximal [3H]MK-801 binding relative to 1 mM glycine). Also, in [7], the “NMDAR2C A: % maximal [3H]MK-801 binding relative to 1 mM glycine” value is given as “+ (<100%=+)”. For the same molecule, the “NMDAR2D: % maximal [3H]MK-801 binding relative to 1 mM glycine” value in data set [8] is on record as “+ (<100%=+)”.
In the case of `C[C@@H](O)[C@H](NC(=O)C1CCC2(CNC2=O)N1Cc1ccccc1)C(N)=O` (single isomer, unassigned) [AN], the “Max Effect (mean number of 50 kHz USVs per 15 seconds)” value in [1] (dose 0.1 mg/kg) is reported as “* (*: 6-10.9)”. Further, the “Microsomal (Human): percent of compound remaining after 60 minutes” value in data set [2] was found to be 88%. In [3], the “Microsomal (Rat): percent of compound remaining after 60 minutes” value was 87%. Also, the “Plasma (Human): percent of compound remaining after 60 minutes” value in the data set “Plasma stability (Human)” is 88%. The “Plasma (Rat): percent of compound remaining after 60 minutes” value in the data set “Plasma stability (Rat)” is 87%. In addition, the EC50 (in general, the concentration needed to bring the measured effect to its halfway point) in data set [10] (setting [13]) was less than 1 nM. The “NMDAR2A: % maximal [3H]MK-801 binding relative to 1 mM glycine” value in data set [10] (relative to 1 mM glycine) is given as “+ (<100%=+)”. For the same molecule, in [5], the EC50 is less than 1 nM. The “NMDAR2B: % maximal [3H]MK-801 binding relative to 1 mM glycine” value in data set [11] is given as “+ (<100%=+)”. The half-maximal effective concentration (EC50) in data set [6] is less than 1 nM. The “NMDAR2C A: % maximal [3H]MK-801 binding relative to 1 mM glycine” value in data set [7] is given as “+ (<100%=+)”. Besides, in data set [8] ([3H]MK-801 binding, read-out: NMDAR2D: log EC50 (converted)), the EC50 was less than 1 nM. Moreover, the “NMDAR2D: % maximal [3H]MK-801 binding relative to 1 mM glycine” value in data set [8] was “+ (<100%=+)”. In “IV pharmacokinetics”, this molecule came in with an AUClast of 727.7 ng·h/mL, a C0 of 3209.4 ng/mL, a Cl of 45.98 mL/min/kg and a T1/2 of 4.67 h. Also, the Vss (usually the apparent volume that relates the amount in the body to the concentration in plasma or blood) in the data set “IV pharmacokinetics” came to 2.45 L/kg. Also, in [12], the “% F” value was 3% and the AUClast worked out at 126.32 ng·h/mL. In addition, the “CSF Cmax” value in [12] (CSF) was determined as 0 ng/mL. Moreover, in [12] (brain), the “Brain Cmax” value was 0 ng/mL. Also, the Tmax (commonly the time from dosing to the highest level) in [12] (normal saline) turned out to be 0.42 h. In data set [12] (plasma), the Cmax (commonly the peak of the concentration-time curve) is recorded as 38.9 ng/mL.
